The results in this text go back to patent US6465221B1, “Method of producing a taxane-type diterpene” (Mitsui Chemicals, Inc., priority 1994, dated 2002).

The subject of the assay is cultured cells of Taxus media. The experiment in a line: Taxus media cell culture with derivatives of jasmonic acids. The assay is classed as cell-based. As for the experimental part: A part of germ of Taxus media which had been previously sterilized with 2% antiformin solution or 70% ethanol solution or the like, was placed on solid Woody Plant Medium (containing gelan gum of 0.25% by weight) to which naphthalenacetic acid had been added to give the concentration of 10^−5 M, and static culture was carried out at 25° C. in a dark place to provide callus of Taxus media. One gram (fresh weight) of the callus was inoculated to an Erlenmeyer flask containing 20 ml of liquid Woody Plant Medium to which above-mentioned component was added to give the same concentration, the and shake culture was carried out with a rotary shaker (amplification of 25 mm, 100 rpm) and the callus was subcultured in every 14 days to accelerate the growth rate thereof.
Two grams (fresh weight) of the cultured cells thus obtained was inoculated to an Erlenmeyer flask containing 20 ml of liquid Woody Plant […], and the culture was further carried out for another 14 days.
After completing the culture, cultured cells of Taxus media were harvested by filtration and lyophilized, then the dry weight was measured to obtain the yield of the cultured cells per liter of the liquid medium.

Where [1] appears, read: concentration of derivative of jasmonic acids 0.001 μM.
Where [2] appears, read: concentration of derivative of jasmonic acids 0.01 μM.
Where [3] appears, read: concentration of derivative of jasmonic acids 0.1 μM.
Where [4] appears, read: concentration of derivative of jasmonic acids 1 μM.
Where [5] appears, read: concentration of derivative of jasmonic acids 10 μM.
The mark [6] stands for this setting: concentration of derivative of jasmonic acids 100 μM.
Where [7] appears, read: concentration of derivative of jasmonic acids 1000 μM.

Turning to `CC/C=C\CC1C(=NO)CCC1CC(=O)OC` (stereo not drawn) [Example 32], the “yield of cultured cells” value reads like this: under setting [1], 22.0 g/L; under setting [2], 21.1 g/L; under setting [3], 20.2 g/L; under setting [4], 19.5 g/L; under setting [5], 18.3 g/L; under setting [6], 16.4 g/L. Under setting [7], the “yield of cultured cells” value was determined as 14.0 g/L. In addition, the “yield of taxane-type diterpenes, baccatin III” value (shortened to “yield … baccatin III”) came out at 6.7 mg/L under setting [1]; 6.8 mg/L under setting [2]; 7.5 mg/L under setting [3]; 8.5 mg/L under setting [4]; 13.5 mg/L under setting [5]; 20.1 mg/L under setting [6]. Moreover, the “yield … baccatin III” value under setting [7] came to 9.3 mg/L. For the same molecule, the “yield of taxane-type diterpenes, cephalomannine” value (“yield … cephalomannine” below) was determined as 3.2 mg/L under setting [1]; 3.6 mg/L under setting [2]; 4.0 mg/L under setting [3]; 4.2 mg/L under setting [4]; 6.3 mg/L under setting [5]; 9.2 mg/L under setting [6]. For the same molecule, under setting [7], the “yield … cephalomannine” value was found to be 3.5 mg/L. Further, the “yield of taxane-type diterpenes, taxol” value by setting is: under setting [1], 16.7 mg/L; under setting [2], 20.2 mg/L; under setting [3], 24.1 mg/L; under setting [4], 34.5 mg/L; under setting [5], 56.2 mg/L; under setting [6], 78.0 mg/L. Besides, the “yield of taxane-type diterpenes, taxol” value under setting [7] was 17.2 mg/L.
In the case of `CC/C=C\CC1/C(=N\OC)CCC1CC(=O)OC` (stereo not drawn) [Example 33], under setting [6], the “yield of cultured cells” value was 16.1 g/L; the “yield … baccatin III” value was 18.0 mg/L; the “yield … cephalomannine” value is 5.2 mg/L; the “yield of taxane-type diterpenes, taxol” value came out at 65.3 mg/L.
On the same counts, the results for `CC/C=C\CC1C(=NN)CCC1CC(=O)OC` (stereo not drawn) [Example 34] are 16.7 g/L, 16.5 mg/L, 6.6 mg/L and 55.0 mg/L.
As to `CC/C=C\CC1/C(=N\NC(N)=O)CCC1CC(=O)OC` (stereo not drawn) [Example 35], under setting [6], the “yield of cultured cells” value was found to be 15.3 g/L; the “yield … baccatin III” value turned out to be 17.2 mg/L; the “yield … cephalomannine” value came to 5.0 mg/L; the “yield of taxane-type diterpenes, taxol” value is 56.3 mg/L.
Consider `CC/C=C\CC1/C(=N\NC=O)CCC1CC(=O)OC` (stereo not drawn) [Example 36], for which, under setting [6], the “yield of cultured cells” value worked out at 17.2 g/L; the “yield … baccatin III” value came out at 18.5 mg/L; the “yield … cephalomannine” value stood at 6.2 mg/L; the “yield of taxane-type diterpenes, taxol” value was found to be 79.5 mg/L.
Take `CC/C=C\CC1C(=NNS(C)(=O)=O)CCC1CC(=O)OC` (stereo not drawn) [Example 37]: under setting [6], the “yield of cultured cells” value was found to be 17.1 g/L; the “yield … baccatin III” value came out at 15.3 mg/L; the “yield … cephalomannine” value is 5.9 mg/L; the “yield of taxane-type diterpenes, taxol” value amounted to 73.3 mg/L.
For the molecule `CC/C=C\CC1C(=NC#N)CCC1CC(=O)OC` (stereo not drawn) [Example 38], under setting [6], the “yield of cultured cells” value was 14.3 g/L; the “yield … baccatin III” value amounted to 14.5 mg/L; the “yield … cephalomannine” value turned out to be 5.0 mg/L; the “yield of taxane-type diterpenes, taxol” value is 82.9 mg/L.
With `CC/C=C\CC1C(=NS(N)(=O)=O)CCC1CC(=O)OC` (stereo not drawn) [Example 39], under setting [6], the “yield of cultured cells” value came out at 17.1 g/L; the “yield … baccatin III” value was 19.0 mg/L; the “yield … cephalomannine” value worked out at 7.5 mg/L; the “yield of taxane-type diterpenes, taxol” value amounted to 85.0 mg/L.
As for `CC/C=C\CC1C(CC(=O)OC)CCC1NO` (stereo not drawn) [Example 40], under setting [6], the “yield of cultured cells” value came out at 16.2 g/L; the “yield … baccatin III” value amounted to 14.2 mg/L; the “yield … cephalomannine” value was 5.5 mg/L; the “yield of taxane-type diterpenes, taxol” value was determined as 73.3 mg/L.
